Measured values from patent publication US20230174530A1, “N-(PHENYLAMINOCARBONYL) TETRAHYDRO-ISOQUINOLINES AND RELATED COMPOUNDS AS MODULATORS OF GPR65” (PATHIOS THERAPEUTICS LIMITED, priority 2020, published 2023).

biological target: T1, human recombinant GPR65 (Homo sapiens, UniProt Q8IYL9); assay: Human GPR65 cAMP HTRF antagonist assay; type: cell-based; details: 1321N1-hrGPR65 cells stimulated at assay pH 7.2; suppression of cAMP rise; read-out: hGPR65 IC50
T1 construct: host or cells: 1321N1 human astrocytoma cells (1321N1-hrGPR65)
Method in brief: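 1321N1 astrocytoma cells stably expressing human GPR65, 2,000 per well in KRH with 1 mM IBMX and 200 μM EDTA, preincubated 30 min with compound at RT. Acid stimulation at pH 7.2 for 30 min, pH 7.9 as control. cAMP read by HTRF 665/620 ratio; IC50 from normalised 4-parameter fit.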

T1 sequence (Q8IYL9 whole entry): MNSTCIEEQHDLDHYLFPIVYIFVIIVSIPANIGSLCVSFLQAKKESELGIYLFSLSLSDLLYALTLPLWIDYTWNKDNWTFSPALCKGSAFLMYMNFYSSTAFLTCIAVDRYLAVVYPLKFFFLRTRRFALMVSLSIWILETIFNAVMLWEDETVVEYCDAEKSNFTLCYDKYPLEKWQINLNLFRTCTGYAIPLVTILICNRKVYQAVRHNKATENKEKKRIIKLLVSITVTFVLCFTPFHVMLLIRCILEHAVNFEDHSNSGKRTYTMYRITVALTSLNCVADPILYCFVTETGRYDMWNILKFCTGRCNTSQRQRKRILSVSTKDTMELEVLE

IC50 | SMILES
< 0.5 µM | O=C(Nc1ccc(C(F)(F)F)c(Cl)c1)N1CCc2cc(F)c(F)cc2C1 [Compound 108, N-(3-Chloro-4-(trifluoromethyl)phenyl)-6,7-difluoro-3,4-dihydroisoquinoline-2(1H)-carboxamide]
< 0.5 µM | O=C(Nc1ccc(Cl)c(Cl)c1)N1CCc2cc3nncn3cc2C1 [Compound 109, N-(3,4-Dichlorophenyl)-8,9-dihydro-[1,2,4]triazolo[4,3-b][2,7]naphthyridine-7(6H)-carboxamide]
> 5 µM | O=C(Nc1ccc(Cl)c(Cl)c1)N1CCc2cc3nccn3cc2C1 [Compound 110, N-(3,4-Dichlorophenyl)-8,9-dihydroimidazo[1,2-b][2,7]naphthyridine-7(6H)-carboxamide]
> 5 µM | O=C(Nc1ccc(Cl)c(Cl)c1)N1CCc2cc3ncnn3cc2C1 [Compound 111, N-(3,4-Dichlorophenyl)-8,9-dihydro-[1,2,4]triazolo[1,5-b][2,7]naphthyridine-7(6H)-carboxamide]
< 0.5 µM | O=C(Nc1cc(Cl)c(Cl)cc1F)N1CCc2cc(=O)[nH]cc2C1 [Compound 112, N-(4,5-Dichloro-2-fluorophenyl)-6-oxo-3,4,6,7-tetrahydro-2,7-naphthyridine-2(1H)-carboxamide]
< 0.5 µM | O=C(Nc1ccc(Cl)c(Cl)c1)N1CCc2cc3cncn3cc2C1 [Compound 113, N-(3,4-Dichlorophenyl)-8,9-dihydroimidazo[1,5-b][2,7]naphthyridine-7(6H)-carboxamide]
< 0.5 µM | COC(=O)c1ccc2c(c1)CCN(C(=O)Nc1ccc(Cl)c(Cl)c1)C2 [Compound 114, Methyl 2-((3,4-dichlorophenyl)carbamoyl)-1,2,3,4-tetrahydroisoquinoline-6-carboxylate]
> 5 µM | O=C(Nc1ccc(Cl)c(Cl)c1)N1CCc2cn3ccnc3cc2C1 [Compound 115, N-(3,4-Dichlorophenyl)-6,7-dihydroimidazo[1,2-b][2,6]naphthyridine-8(9H)-carboxamide]
> 5 µM | O=C(Nc1ccc(Cl)c(Cl)c1)N1CCc2cn3cnnc3cc2C1 [Compound 116, N-(3,4-Dichlorophenyl)-6,7-dihydro-[1,2,4]triazolo[4,3-b][2,6]naphthyridine-8(9H)-carboxamide]
< 0.5 µM | O=C(Nc1ccc(Cl)c(Cl)c1)N1CCc2cn3cncc3cc2C1 [Compound 117, N-(3,4-Dichlorophenyl)-6,7-dihydroimidazo[1,5-b][2,6]naphthyridine-8(9H)-carboxamide]
0.5 to 5 µM | O=C(Nc1ccc(Cl)c(Cl)c1F)N1CCc2cc(=O)[nH]cc2C1 [Compound 118, N-(3,4-Dichloro-2-fluorophenyl)-6-oxo-3,4,6,7-tetrahydro-2,7-naphthyridine-2(1H)-carboxamide]
> 5 µM | Nc1nccc2c1CCN(C(=O)Nc1ccc(Cl)c(Cl)c1)C2 [Compound 119, 5-Amino-N-(3,4-dichlorophenyl)-3,4-dihydro-2,6-naphthyridine-2(1H)-carboxamide]
< 0.5 µM | O=C(Nc1ccc(Cl)c(Cl)c1)N1CCc2c(ccnc2F)C1 [Compound 120, N-(3,4-Dichlorophenyl)-5-fluoro-3,4-dihydro-2,6-naphthyridine-2(1H)-carboxamide]
> 5 µM | O=C(Nc1ccc(Cl)c(Cl)c1)N1CCc2cn3ncnc3cc2C1 [Compound 121, N-(3,4-Dichlorophenyl)-6,7-dihydro-[1,2,4]triazolo[1,5-b][2,6]naphthyridine-8(9H)-carboxamide]
> 5 µM | Nc1ccc2c(n1)CCN(C(=O)Nc1ccc(Cl)c(Cl)c1)C2 [Compound 122, 2-Amino-N-(3,4-dichlorophenyl)-7,8-dihydro-1,6-naphthyridine-6(5H)-carboxamide]
< 0.5 µM | O=C(Nc1ccc(Cl)c(Cl)c1)N1CCc2nc(F)ccc2C1 [Compound 123, N-(3,4-Dichlorophenyl)-2-fluoro-7,8-dihydro-1,6-naphthyridine-6(5H)-carboxamide]
> 5 µM | CS(=O)(=O)c1ccc2c(c1)CCN(C(=O)Nc1ccc(C(F)(F)F)c(Cl)c1)C2 [Compound 124, N-(3-Chloro-4-(trifluoromethyl)phenyl)-6-(methylsulfonyl)-3,4-dihydroisoquinoline-2(1H)-carboxamide]
> 5 µM | CS(=O)(=O)c1ccc2c(c1)CCN(C(=O)Nc1ccc(Cl)c(Cl)c1)C2 [Compound 125, N-(3,4-Dichlorophenyl)-6-(methylsulfonyl)-3,4-dihydroisoquinoline-2(1H)-carboxamide]
0.5 to 5 µM | O=C(Nc1ccc(Cl)c(Cl)c1)N1CCc2cc(-c3cccnc3F)ccc2C1 [Compound 126, N-(3,4-Dichlorophenyl)-6-(2-fluoropyridin-3-yl)-3,4-dihydroisoquinoline-2(1H)-carboxamide]
> 5 µM | O=C(Nc1ccc(Cl)c(Cl)c1)N1CCc2cc(-c3cccs3)ccc2C1 [Compound 127, N-(3,4-Dichlorophenyl)-6-(thiophen-2-yl)-3,4-dihydroisoquinoline-2(1H)-carboxamide]
> 5 µM | O=C(Nc1ccc(Cl)c(Cl)c1)N1CCc2cc(-c3ccsc3)ccc2C1 [Compound 128, N-(3,4-Dichlorophenyl)-6-(thiophen-3-yl)-3,4-dihydroisoquinoline-2(1H)-carboxamide]
0.5 to 5 µM | COC(=O)c1cc2c(cn1)CN(C(=O)Nc1ccc(C(F)(F)F)c(Cl)c1)CC2 [Compound 129, Methyl 7-((3-chloro-4-(trifluoromethyl)phenyl)carbamoyl)-5,6,7,8-tetrahydro-2,7-naphthyridine-3-carboxylate]
> 5 µM | O=C(Nc1cc(Cl)c(Cl)cc1C(F)(F)F)N1CCc2cc(=O)[nH]cc2C1 [Compound 130, N-(4,5-Dichloro-2-(trifluoromethyl)phenyl)-6-oxo-3,4,6,7-tetrahydro-2,7-naphthyridine-2(1H)-carboxamide]
0.5 to 5 µM | COC(=O)c1ccc2c(c1)CN(C(=O)Nc1ccc(Cl)c(Cl)c1)CC2 [Compound 131, Methyl 2-((3,4-dichlorophenyl)carbamoyl)-1,2,3,4-tetrahydroisoquinoline-7-carboxylate]
0.5 to 5 µM | N#Cc1cccc2c1CN(C(=O)Nc1ccc(C(F)(F)F)c(Cl)c1)CC2 [Compound 132, N-(3-Chloro-4-(trifluoromethyl)phenyl)-8-cyano-3,4-dihydroisoquinoline-2(1H)-carboxamide]
0.5 to 5 µM | COc1cccc2c1CCN(C(=O)Nc1ccc(Cl)c(C(F)(F)F)c1)C2 [Compound 133, N-(4-Chloro-3-(trifluoromethyl)phenyl)-5-methoxy-3,4-dihydroisoquinoline-2(1H)-carboxamide]
0.5 to 5 µM | COc1cccc2c1CCN(C(=O)Nc1ccc(C(F)(F)F)c(Cl)c1)C2 [Compound 134, N-(3-Chloro-4-(trifluoromethyl)phenyl)-5-methoxy-3,4-dihydroisoquinoline-2(1H)-carboxamide]
0.5 to 5 µM | Cc1ccc2c(c1)CCN(C(=O)Nc1ccc(Cl)c(Cl)c1)C2 [Compound 135, N-(3,4-Dichlorophenyl)-6-methyl-3,4-dihydroisoquinoline-2(1H)-carboxamide]
0.5 to 5 µM | Cc1ccc2c(c1)CCN(C(=O)Nc1ccc(C(F)(F)F)c(Cl)c1)C2 [Compound 136, N-(3-Chloro-4-(trifluoromethyl)phenyl)-6-methyl-3,4-dihydroisoquinoline-2(1H)-carboxamide]
